Literature values as cited in article PMC5902495, “Synthesis of Symmetrical Tetrameric Conjugates of the Radiolanthanide Chelator DOTPI for Application in Endoradiotherapy by Means of Click Chemistry” (Frontiers in Chemistry, 2018).
“And” between values parts separate entries of the source, which are not always exact repeats. Equal values may be shown once. Read-outs that look alike come from different tables or passages of the source.

Columns and labels:
[1] = 25°C, cited from earlier work
[2] = cited from earlier work
[3] = cited from earlier work; remark: listed apart in the source
[4] = 25°C, cited from earlier work; remark: listed apart in the source
[5] = I = 0.15 M NaCl, ref Takács et al., [2014]
[6] = 25°C, I = 0.15 M NaCl, ref Baranyai et al., [2010]
[7] = I = 0.1 M KNO3, ref Baranyai et al., [2007]
[8] = I = 0.1 M KNO3, ref Desreux et al., [1981]
[9] = 25°C, I = 0.1 M KNO3, ref Bazakas and Lukeš, [1995], Kotková et al., [2009]
[10] = 25°C, I = 0.1 M KNO3, ref Lázár et al., [1991]

In the case of `O=C(O)CN1CCN(CC(=O)O)CCN(CC(=O)O)CCN(CC(=O)O)CC1` [DOTA, 1,4,7,10-tetraazacyclododecane-1,4,7,10-tetraacetic acid], the “protonation constant CaHL” value ([1]; 0.15 M NaCl) is given as 3.90 (2), the “logKML, CaL” value [1, 5] is given as 13.84 (1) and the “protonation constant CuH2L” value ([2]; 25°C, 0.15 M NaCl) is given as 3.41 (1). The “protonation constant CuH3L” value ([2]; 25°C, 0.15 M NaCl) was 0.83 (2), the “protonation constant CuHL” value ([2]; 25°C, 0.15 M NaCl) was 4.08 (1) and the “logKML, CuL” value ([2]; 25°C, I = 0.15 M NaCl, ref Takács et al., [2014]) was 21.97 (1). For the same molecule, the “log K1H” value [3, 6] was 9.14, the “log K2H” value [3, 6] was 9.21 and the “log K3H” value [3, 6] was 4.48. The “log K4H” value [3, 6] was 4.03, the “log K5H” value [3, 6] was 1.99 and the “log K6H” value [3, 6] was 1.58. For the same molecule, the “Σlog KiH (total basicity)” value [3, 6] was 30.43, the “protonation constant ZnH2L” value ([4]; 0.15 M NaCl) was 3.40 (1) and the “protonation constant ZnHL” value ([4]; 0.15 M NaCl) was 4.16 (2). For the same molecule, the “logKML, ZnL” value [4, 5] was 17.35 (1).
In the case of `O=C([O-])CN(CCN(CC(=O)[O-])CC(=O)[O-])CC(=O)[O-].[Cu+2]` [Cu(EDTA), reference compound], the “stability constant of the Cu(EDTA) complex” value ([2]; taken from the literature) is given as 19.05.
For `O=C(O)CN(CCN(CC(=O)O)CC(=O)O)CC(=O)O` [EDTA, ethylenediamine-tetraacetic acid], the logK1H ([3]; taken from the literature) is given as 9.43, the logK2H ([3]; taken from the literature) is given as 6.12 and the logK3H ([3]; taken from the literature) is given as 2.85. For the same molecule, the logK4H ([3]; taken from the literature) was 2.18 and the logK5H ([3]; taken from the literature) was 1.77.
In the case of `O=[PH](O)CN1CCN(C[PH](=O)O)CCN(C[PH](=O)O)CCN(C[PH](=O)O)CC1` [DOTP^H], the “protonation constant CaHL” value ([1]; 0.1 M KNO3) is listed as 3.94, the “logKML, CaL” value [1, 7] is listed as 9.46 and the “logKML, CaL” value [1, 8] is listed as 9.39. The “logKML, CuL” value ([2]; 25°C, I = 0.1 M KNO3, ref Baranyai et al., [2007]) was 18.03, the “logKML, CuL” value ([2]; 25°C, I = 0.1 M KNO3, ref Desreux et al., [1981]) was 19.59 and the “log K1H” value [3, 9] was 10.41 and 10.58. For the same molecule, the “log K2H” value [3, 9] was 6.83 and 6.93, the “log K3H” value [3, 9] was 1.97 and 1.90 and the “Σlog KiH (total basicity)” value [3, 9] was 19.21 and 19.41. The “log K1H” value [3, 10] was 10.94, the “log K2H” value [3, 10] was 8.24 and the “log K3H” value [3, 10] was 3.71. The “Σlog KiH (total basicity)” value [3, 10] was 22.89, the “protonation constant ZnHL” value ([4]; 0.1 M KNO3) was 2.62 and the “logKML, ZnL” value [4, 7] was 14.60. For the same molecule, the “logKML, ZnL” value [4, 8] was 15.80.
